Values of other authors as cited in Sander's compilation of Henry's law constants (doi:10.1016/j.chemosphere.2021.129858).

Assay: Henry solubility constant Hcp at 298.15 K (mol/(m3 Pa))
Settings: reference: Schwardt et al. (2021); cited value

SMILES	Henry solubility constant Hcp
ClCC(Cl)Cl [1,1,2-trichloroethane]	0.011
ClCCl [dichloromethane]	0.0039
Clc1ccccc1 [chlorobenzene]	0.0024
Cc1ccccc1 [methylbenzene]	0.0016
Cc1ccccc1C [1,2-dimethylbenzene]	0.002
C=CCl [chloroethene]	0.00041
CCCc1ccccc1 [propylbenzene]	0.0009
ClC=C(Cl)Cl [trichloroethene]	0.0011
CCCl [chloroethane]	0.00081
c1ccc2c(c1)ccc1ccccc12 [phenanthrene]	0.21
Clc1ccc(Cl)cc1 [1,4-dichlorobenzene]	0.0032
CC(Cl)(Cl)Cl [1,1,1-trichloroethane]	0.0006
Cc1ccc(Cl)cc1Cl [2,4-dichloro-1-methylbenzene]	0.0027
CC(Cl)CCl (stereo not drawn) [1,2-dichloropropane]	0.0037
c1ccc2c(c1)-c1cccc3cccc-2c13 [benzo[jk]fluorene]	0.58
ClC(Cl)C(Cl)Cl [1,1,2,2-tetrachloroethane]	0.023
Cc1ccc(C)cc1 [1,4-dimethylbenzene]	0.0015
C=C(Cl)Cl [1,1-dichloroethene]	0.00037
c1ccc2cc3ccccc3cc2c1 [anthracene]	0.18
ClC(Cl)(Cl)Cl [tetrachloromethane]	0.00034
Cc1cccc(C)c1 [1,3-dimethylbenzene]	0.0014
c1ccccc1 [benzene]	0.0018
ClCC(Cl)(Cl)Cl [1,1,1,2-tetrachloroethane]	0.005
c1ccc2ccccc2c1 [naphthalene]	0.021
ClC(Cl)=C(Cl)Cl [tetrachloroethene]	0.00057
Clc1cccc(Cl)c1 [1,3-dichlorobenzene]	0.0031
CCc1ccccc1 [ethylbenzene]	0.0014
c1cc2c3c(cccc3c1)CC2 [acenaphthene]	0.054
